Where two headings read alike, the source gives them in different places.

Ki data for two molecules are collected here from PMC10411625, “Rationally designed stapled peptides allosterically inhibit PTBP1–RNA-binding” (Chemical Science, 2023).

For the assay, the target named is T1, PTBP1 RRM12 (Homo sapiens, UniProt P26599).
T1 construct: (P57-V265); MBP (from pMAL vector); His tag; made in house; host or cells: E. coli BL21 DE3 RIL
T1 sequence (P26599 57-265): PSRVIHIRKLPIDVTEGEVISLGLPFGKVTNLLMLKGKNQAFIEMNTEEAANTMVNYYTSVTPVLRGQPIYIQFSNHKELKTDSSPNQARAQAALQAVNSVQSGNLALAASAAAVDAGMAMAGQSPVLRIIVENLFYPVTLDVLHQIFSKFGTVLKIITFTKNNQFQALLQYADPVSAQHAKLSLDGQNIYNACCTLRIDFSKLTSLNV
Put plainly: Competitive fluorescence polarization assay between RRM12 and RNA-2. Format: binding. The text has this:
For the initial design we used the i, i + 4 strategy where two (S)-pentenyl alanines (S5) were introduced in positions with three other amino acids in between. We picked three different amino acid pairs to replace with the S5 amino acids based on their orientation as observed in the NMR structures (P-2, P-3 and P-4, Fig. 2B and C).[25] To prevent the staple from disturbing the interaction between the ligand and the protein we chose positions facing away from the binding site forming the pairs Ala145/Ala149, Gln148/Gln152, and Ala149/Ala153. The three peptides were synthesized on Rink amide resin and the linear peptides were treated with a Grubbs catalyst to connect the S5 residues. To avoid a mixture of E/Z-diastereomers we reduced the alkene in the linker of the staple using a solution phase hydrogenation protocol.[43] The linear equivalent P-1 was synthesized for comparison but had to be extended on the C-terminus with an arginine residue to improve its solubility. The C-terminus is away from the binding surface and this modification was therefore not expected to have an impact on the binding affinity. The peptides were tested in a competitive fluorescence polarization assay using the RRM12 construct and RNA-2 (Fig. 2C and S2 ^†). […] As the staple is expected to stabilize the α-helical conformation we used circular dichroism (CD) spectroscopy to evaluate the helicity of the peptides. […] It is possible that although P-4 was more helical than P-3, the replacement of Gln148 with the hydrophobic linker disturbed the interaction since the side chain amide potentially interacts with the RRM1 surface. […]
size exclusion chromatography (Superdex 75 16/60 or 26/60) with SEC buffer (50 mM Tris, 200 mM NaCl). Protein homogeneity was assessed by the size exclusion chromatogram and purity was checked by SDS-PAGE analysis to be >= 90%.
The gene encoding for SRSF1-RRM12 (1-195) was subcloned into pOPIN-His expression vector and expressed in E. coli BL21 (DE3). A pre-culture of transformed bacteria was made followed by expression in LB-Medium (100 µg/ml Ampicillin, 1 mM IPTG, 18 °C, 160 rpm overnight) after growing the culture at 37 °C, 160 rpm to an OD600 of 0.6. The harvested cells (5000 x g, 4 °C, 15 min) were resuspended in Buffer ASRSF1 (50 mM Na2HPO4 pH 8.0, 300 mM KCl, 50 mM L-Arg, 50 mM L-Gly, 1.5 mM MgCl2) supplemented with 1 mM PMSF followed by lysis through sonification. The protein was purified using a HisTrap HP 5 ml column (GE-Healthcare) using a gradient of Buffer BSRSF1 (50 mM Na2HPO4 pH 8.0, 300 mM KCl, 50 mM L-Arg, 50 mM L-Gly, 1.5 mM MgCl2, 500 mM Imidazole) followed by dialysis into wash buffer (50 mM Na2HPO4 pH 8.0, 300 mM KCl, 50 mM L-Arg, 50 mM L-Gly, 1.5 mM MgCl2, 40 mM Imidazole) and a second run of the affinity column. The protein containing fractions were afterwards dialyzed into wash buffer with tag-cleavage using His-tagged 3C protease. The cleaved construct was subsequently used for a third affinity column run collecting the unbound fraction which was dialyzed into storage buffer (20 mM Na2HPO4 pH 8.0, 150 mM KCl, 50 mM L-Arg, 50 mM L-Gly, 1.5 mM MgCl2, 0.2 mM EDTA, 1 mM TCEP).
Purification of hnRNP A2/B1
The MBP-tagged hnRNP A2/B1 construct (1-251) was expressed from a pOPIN-His-MBP vector in E. coli BL21 (DE3) RIPL cells. A pre-culture in TB (0.01% lactose, 2mM MgSO4, 100 µg/ml ampicillin, 50 µg/ml chloramphenicol) was used to inoculate the expression culture with a starting OD600 of 0.05 at 37 °C. Expression was autoinduced at 37 °C for 4 h followed by expression over night at 25 °C. Harvested cells (5000 x g, 15 min, 4 °C) were resuspended in Buffer AhnRNPA2/B1 (50 mM HEPES pH 8.0, 300 mM NACl, 20 mM Imidazole, 1 mM TCEP) supplemented with 1 mM PMSF) and lysed with a microfluidizer.
Immobilized metal affinity chromatography was performed using a HisTrap FF crude 5 ml column. The loaded protein was washed with wash buffer (50 mM HEPES pH 8.0, 300 mM NaCl, 30 mM Imidazole, […]

[1] abbreviates: Fig. 2C, 5 nM FAM-RNA-2, protein at 50-70 % probe binding, FP buffer pH 8.0, 20 °C, 30 min, n.b. given for inactive peptides, read-out: Ki, competitive FP assay between RRM12 and RNA-2.

For `CC(=O)N[C@@H](CC(N)=O)C(=O)N[C@@H](CCC(N)=O)C(=O)N[C@@]1(C)CCCCCCCC[C@@](C)(C(=O)N[C@@H](C)C(=O)N[C@@H](CC(C)C)C(=O)N[C@@H](CCC(N)=O)C(=O)N[C@@H](C)C(=O)N[C@H](C(=O)N[C@@H](CC(N)=O)C(N)=O)C(C)C)NC(=O)[C@H](CCC(N)=O)NC(=O)[C@H](C)NC(=O)[C@H](CCCNC(=N)N)NC1=O` [Peptide P-2], the inhibition constant Ki under setting [1] came out at 11.6 µM. Regarding `CC(=O)N[C@@H](CC(N)=O)C(=O)N[C@@H](CCC(N)=O)C(=O)N[C@@]1(C)CCCC=CCCCC2(CCCC=CCCC[C@](C)(C(=O)N[C@H](C(=O)N[C@@H](CC(N)=O)C(N)=O)C(C)C)NC(=O)[C@H](CCC(N)=O)NC(=O)[C@H](CC(C)C)NC(=O)[C@H](C)NC2=O)NC(=O)[C@H](CCC(N)=O)NC(=O)[C@H](C)NC(=O)[C@H](CCCNC(=N)N)NC1=O` (stereo partly drawn) [Peptide P-6], the Ki under setting [1] was 9.3 µM and the Ki (Fig. 3C experiment, competitive FP with RNA-2, read-out: P-6 Ki, construct RRM12) came to 8 ± 7.1 µM.
